Measured values taken from US20050165115A1, “Methods and compositions for predicting compliance with an antidepressant treatment regimen” (priority 2003, published 2005).
One block for each compound: values may come before it.

Columns and labels:
[1] = test system: outpatients 65 years of age or older with major depressive disorder (MDD); assay: Efficacy outcome measures (HDRS-17, GDS) in double-blind mirtazapine vs paroxetine study, stratified by 5HTTLPR genotype; assay type: in vivo, human; details: for HAMD-17 or GDS, differences among the three genotype groups: patients stratified by 5HTTLPR genotype (S/S, S/L, L/L), any time point
From the text: Genet. 8(3):193-195 (1998).

[2] = in vivo
From the text: (§1) The study group included 255 outpatients 65 years of age or older with major depressive disorder (MDD) who were randomized to mirtazapine or paroxetine in a double-blind design at 18 U.S. centers. Details of the study design and overall clinical outcomes have been previously described (Schatzberg et al., Am J Geriatr Psychiatry 10(5):541-550 (2002)). […] At baseline all patients scored above the age-adjusted 25th percentile on the Mini Mental State Exam (MMSE), and all had Hamilton Depression Rating Scale (HDRS-17) scores ≧18. Starting doses were 15 mg for mirtazapine and 20 mg for paroxetine. Dosage for both medications was increased to 30 mg after 14 days, with the option to increase to 45 mg of mirtazapine or 40 mg of paroxetine on subsequent visits. Exclusion criteria were clinically significant unstable medical illness, history of treatment resistance, principal psychiatric diagnoses other than MDD, use of other psychotropics, and electroconvulsive therapy (ECT) within the previous 6 months.
(§2) Genomic DNA was extracted from EDTA-treated frozen whole blood by using a Puregene Kit (Gentra Systems, Minneapolis). 5HTTLPR genotypes were determined by PCR and gel electrophoresis as described in Edenberg et al., Psychiatr. Genet. 8(3):193-195 (1998).
(§3) Plasma drug levels were obtained after 4 weeks of treatment as described (Murphy et al., Biol Psychiatry 54:665-673 (2003)). Efficacy outcome measures (determined at baseline and at day 7,14, 21, 28, 42, and 56) included the Hamilton Depression Rating Scale (HDRS-17) (Hamilton et al., Br J Soc Clin Psychol. 6(4):278-296 (1967)) and the Geriatric Depression Scale (GDS) (Yesavage et al., J. Psychiat. Res. 17:37-49 (1983)). Measures related to adverse events included Medication Compliance, Severity of Adverse Events, Time to Discontinuation of Treatment Regimen due to an adverse event, and number of discontinuations due to an adverse event. Statistical methods included analyses of covariance (adjusted for baseline scores), Cochran-Mantel-Haenszel statistics, and Kaplan-Meier survival analyses. […] Analyses were performed for the entire group and also with 20 ethnic minority patients omitted.

[3] = test system: outpatients 65 years of age or older with major depressive disorder (MDD); details: in vivo
From the text: as §1, §2, §3

plasma levels at day 28, differences among the genotype groups [2]: no significant differences
frequency of discontinuation of treatment regimen, L/L genotype [3]: most frequent
Compound: CN1CCN2c3ncccc3Cc3ccccc3C2C1 (stereo not drawn) [mirtazapine]
GDS scores, S carriers vs others ([1]; after adjusting for baseline difference, any subsequent time point): not significantly different
HDRS scores, S allele carriers ([1]; day 14, less depressed, p<0.27): lower HDRS scores
HAMD-17 or GDS, differences among the three genotype groups [1]: no significant differences
adverse events associated with L/L genotype discontinuations [3]: drowsiness, dizziness, and anxiety
relationship between number of L alleles and discontinuation due to adverse events, Caucasian patients [3]: positive linear relationship
relationship between number of L alleles and probability of discontinuation due to adverse events [3]: positive linear relationship
severity of adverse events, L/L vs S/S genotype [3]: greater severity

frequency of discontinuation of treatment regimen, L/L genotype [3]: fewest
frequency of discontinuation of treatment regimen, S/L genotype [3]: intermediate frequency
frequency of discontinuation of treatment regimen, S/S genotype [3]: most frequent
subjects who discontinued treatment regimen, L/L and T/T genotypes [3]: none
Compound: Fc1ccc([C@@H]2CCNC[C@H]2COc2ccc3c(c2)OCO3)cc1 [paroxetine]
HDRS, carriers of the S allele vs others ([1]; FIG. 2B): No differences
GDS scores, carriers of the S allele ([1]; days 7 (p=0.003) and 28 (p=0.04), adjusted for baseline body weight, higher = more depressed): significantly higher scores
HAMD-17 or GDS, differences among the three genotype groups [1]: no significant differences
subjects who discontinued treatment regimen due to adverse events, 5HTTLPR S/S and 5HT2A C/C genotypes ([3]; human): 7 of 10
adverse events associated with S/S discontinuations [3]: gastrointestinal complaints, fatigue, agitation, sweating, and dizziness
effects of 5HTTLPR and 5HT2A 102 T/C on discontinuation of treatment regimen due to adverse events [3]: significant effects
interaction term 5HTTLPR x 5HT2A 102 T/C on discontinuation due to adverse events [3]: not significant
relationship between number of S alleles and discontinuations due to adverse events, Caucasian patients [3]: positive linear relationship
relationship between number of S alleles and probability of discontinuation due to adverse events [3]: positive linear relationship
risk of discontinuation of the treatment regimen due to adverse events, S/L vs L/L genotype [3]: significantly greater risk
severity of adverse events, S/S vs L/L genotype [3]: greater severity
